BigSolDB 2.1

O=C(O)[C@H]1O[C@@H](Oc2cc3oc(-c4ccccc4)cc(=O)c3c(O)c2O)[C@H](O)[C@@H](O)[C@@H]1O
solubility (mole fraction)
Settings | 278.15 K | 283.15 K | 288.15 K | 293.15 K | 298.15 K | 303.15 K | 308.15 K | 313.15 K | 318.15 K
in ethanol | 0.000171 | 0.000176 | 0.000181 | 0.000186 | 0.000191 | 0.000196 | 0.000202 | 0.000205 | 0.000212
in isopropanol | 0.000676 | 0.000855 | 0.00112 | 0.00145 | 0.00191 | 0.00246 | 0.00314 | 0.00392 | 0.00472
in methanol | 8.11e-05 | 9.11e-05 | 0.000101 | 0.000113 | 0.000127 | 0.000143 | 0.000157 | 0.000171 | 0.000192
in n-propanol | 0.000768 | 0.00101 | 0.00133 | 0.00171 | 0.00224 | 0.00289 | 0.00363 | 0.00451 | 0.00551
in water | 2.38e-06 | 3.13e-06 | 4.35e-06 | 5.8e-06 | 7.49e-06 | 9.78e-06 | 1.27e-05 | 1.59e-05 | 2.03e-05
